Tests used:
Assay type in all cases: functional; call rule not given here
[1] = target: Metabotropic glutamate receptor 6 (Rattus norvegicus, UniProt P35349); assay: Tested for the agonistic activity against Metabotropic glutamate receptor 6
[2] = target: T1, Metabotropic glutamate receptor 5 (Rattus norvegicus, UniProt P31424); assay: Tested for the agonistic activity against Metabotropic glutamate receptor 5
[3] = target: T1, Metabotropic glutamate receptor 5; assay: Tested for the agonistic activity against Metabotropic glutamate receptor 5; Not active
[4] = target: T2, Metabotropic glutamate receptor 1 (Rattus norvegicus, UniProt P23385); assay: Tested for the agonistic activity against Metabotropic glutamate receptor 1; Not active
[5] = target: T3, Metabotropic glutamate receptor 2 (Rattus norvegicus, UniProt P31421); assay: Tested for the agonistic activity against Metabotropic glutamate receptor 2; Not active
[6] = target: T2, Metabotropic glutamate receptor 1; assay: Tested for the agonistic activity against Metabotropic glutamate receptor 1
[7] = target: T3, Metabotropic glutamate receptor 2; assay: Tested for the agonistic activity against Metabotropic glutamate receptor 2

T3 sequence (P31421 whole entry): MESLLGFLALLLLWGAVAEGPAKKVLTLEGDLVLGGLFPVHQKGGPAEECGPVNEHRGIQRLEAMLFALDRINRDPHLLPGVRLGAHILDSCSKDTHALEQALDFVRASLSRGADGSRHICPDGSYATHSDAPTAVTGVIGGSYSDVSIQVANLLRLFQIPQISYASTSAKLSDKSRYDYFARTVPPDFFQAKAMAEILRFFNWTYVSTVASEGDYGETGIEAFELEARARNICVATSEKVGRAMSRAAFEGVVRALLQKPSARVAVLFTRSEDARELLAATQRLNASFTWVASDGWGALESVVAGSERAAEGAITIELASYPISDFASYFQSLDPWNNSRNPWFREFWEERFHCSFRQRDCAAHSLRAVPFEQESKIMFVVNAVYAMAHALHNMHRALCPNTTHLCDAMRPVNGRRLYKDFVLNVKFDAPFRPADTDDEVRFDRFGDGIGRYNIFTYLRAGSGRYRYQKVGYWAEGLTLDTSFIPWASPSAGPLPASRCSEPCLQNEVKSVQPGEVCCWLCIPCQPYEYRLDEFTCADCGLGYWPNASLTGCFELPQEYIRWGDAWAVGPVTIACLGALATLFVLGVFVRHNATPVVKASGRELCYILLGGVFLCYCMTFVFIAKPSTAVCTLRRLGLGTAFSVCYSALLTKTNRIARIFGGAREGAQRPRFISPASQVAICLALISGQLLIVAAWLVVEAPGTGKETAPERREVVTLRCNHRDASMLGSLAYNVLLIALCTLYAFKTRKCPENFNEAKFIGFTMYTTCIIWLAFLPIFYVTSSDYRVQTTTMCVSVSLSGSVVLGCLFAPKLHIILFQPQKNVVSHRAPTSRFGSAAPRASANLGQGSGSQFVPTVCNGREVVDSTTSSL
T1 sequence (P31424 whole entry): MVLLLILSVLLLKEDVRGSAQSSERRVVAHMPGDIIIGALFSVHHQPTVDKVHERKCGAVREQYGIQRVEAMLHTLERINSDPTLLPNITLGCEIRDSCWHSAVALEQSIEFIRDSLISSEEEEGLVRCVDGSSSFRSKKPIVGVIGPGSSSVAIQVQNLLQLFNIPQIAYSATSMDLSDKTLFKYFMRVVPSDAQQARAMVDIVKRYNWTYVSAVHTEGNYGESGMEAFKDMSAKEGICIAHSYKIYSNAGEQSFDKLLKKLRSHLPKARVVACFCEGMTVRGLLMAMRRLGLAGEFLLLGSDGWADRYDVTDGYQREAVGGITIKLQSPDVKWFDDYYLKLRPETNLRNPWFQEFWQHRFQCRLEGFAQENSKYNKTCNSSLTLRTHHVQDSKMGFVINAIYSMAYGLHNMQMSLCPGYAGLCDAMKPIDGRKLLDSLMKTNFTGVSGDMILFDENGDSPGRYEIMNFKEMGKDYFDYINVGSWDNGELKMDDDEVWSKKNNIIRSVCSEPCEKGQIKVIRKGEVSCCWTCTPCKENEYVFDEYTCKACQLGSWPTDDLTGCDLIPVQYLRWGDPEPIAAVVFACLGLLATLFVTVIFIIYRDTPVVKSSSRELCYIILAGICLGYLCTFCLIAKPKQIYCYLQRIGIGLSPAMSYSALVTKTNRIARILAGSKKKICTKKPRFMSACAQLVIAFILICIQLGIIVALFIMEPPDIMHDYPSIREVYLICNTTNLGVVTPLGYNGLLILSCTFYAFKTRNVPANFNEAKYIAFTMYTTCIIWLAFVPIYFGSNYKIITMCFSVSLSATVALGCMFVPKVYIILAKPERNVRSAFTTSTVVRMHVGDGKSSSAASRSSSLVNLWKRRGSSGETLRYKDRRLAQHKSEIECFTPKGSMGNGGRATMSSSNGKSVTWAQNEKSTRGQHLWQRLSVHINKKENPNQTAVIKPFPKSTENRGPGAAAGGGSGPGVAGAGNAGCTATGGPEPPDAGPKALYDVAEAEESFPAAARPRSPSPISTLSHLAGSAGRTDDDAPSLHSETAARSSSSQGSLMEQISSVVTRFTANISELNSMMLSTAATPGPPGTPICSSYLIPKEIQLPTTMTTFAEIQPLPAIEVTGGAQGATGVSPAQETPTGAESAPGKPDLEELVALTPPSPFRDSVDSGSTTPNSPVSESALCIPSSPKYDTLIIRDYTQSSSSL
T2 sequence (P23385 whole entry): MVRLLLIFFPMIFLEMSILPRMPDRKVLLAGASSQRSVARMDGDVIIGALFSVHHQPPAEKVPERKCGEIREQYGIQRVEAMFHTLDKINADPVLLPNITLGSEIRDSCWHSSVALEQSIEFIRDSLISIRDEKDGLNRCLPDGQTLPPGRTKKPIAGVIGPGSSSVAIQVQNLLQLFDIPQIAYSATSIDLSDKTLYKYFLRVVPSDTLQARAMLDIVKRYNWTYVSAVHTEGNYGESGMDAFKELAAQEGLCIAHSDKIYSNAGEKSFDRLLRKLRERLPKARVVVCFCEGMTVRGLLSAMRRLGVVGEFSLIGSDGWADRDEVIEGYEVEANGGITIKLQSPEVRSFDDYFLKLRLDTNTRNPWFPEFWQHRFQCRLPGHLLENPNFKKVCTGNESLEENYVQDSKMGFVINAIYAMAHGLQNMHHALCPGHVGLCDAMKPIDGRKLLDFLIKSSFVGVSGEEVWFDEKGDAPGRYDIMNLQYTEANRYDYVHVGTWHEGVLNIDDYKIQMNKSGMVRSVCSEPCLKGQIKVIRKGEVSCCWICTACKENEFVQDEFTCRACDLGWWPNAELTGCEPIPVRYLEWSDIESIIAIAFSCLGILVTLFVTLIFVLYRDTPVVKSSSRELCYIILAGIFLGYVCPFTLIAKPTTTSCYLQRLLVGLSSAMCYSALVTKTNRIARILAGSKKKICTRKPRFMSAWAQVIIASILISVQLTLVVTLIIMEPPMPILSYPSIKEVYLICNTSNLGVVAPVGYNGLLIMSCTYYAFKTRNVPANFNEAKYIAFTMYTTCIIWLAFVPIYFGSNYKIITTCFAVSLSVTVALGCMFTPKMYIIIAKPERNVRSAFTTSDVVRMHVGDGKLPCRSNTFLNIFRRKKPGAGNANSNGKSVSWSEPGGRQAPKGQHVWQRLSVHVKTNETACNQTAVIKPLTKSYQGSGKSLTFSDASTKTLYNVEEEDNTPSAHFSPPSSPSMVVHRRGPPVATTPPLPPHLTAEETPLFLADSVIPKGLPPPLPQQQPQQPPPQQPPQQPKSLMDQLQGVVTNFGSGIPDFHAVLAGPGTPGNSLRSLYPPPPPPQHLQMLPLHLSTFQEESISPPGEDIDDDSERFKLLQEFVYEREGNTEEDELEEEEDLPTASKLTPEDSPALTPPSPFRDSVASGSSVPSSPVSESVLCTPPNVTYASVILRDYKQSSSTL
Metabotropic glutamate receptor 6, sequence (P35349 whole entry): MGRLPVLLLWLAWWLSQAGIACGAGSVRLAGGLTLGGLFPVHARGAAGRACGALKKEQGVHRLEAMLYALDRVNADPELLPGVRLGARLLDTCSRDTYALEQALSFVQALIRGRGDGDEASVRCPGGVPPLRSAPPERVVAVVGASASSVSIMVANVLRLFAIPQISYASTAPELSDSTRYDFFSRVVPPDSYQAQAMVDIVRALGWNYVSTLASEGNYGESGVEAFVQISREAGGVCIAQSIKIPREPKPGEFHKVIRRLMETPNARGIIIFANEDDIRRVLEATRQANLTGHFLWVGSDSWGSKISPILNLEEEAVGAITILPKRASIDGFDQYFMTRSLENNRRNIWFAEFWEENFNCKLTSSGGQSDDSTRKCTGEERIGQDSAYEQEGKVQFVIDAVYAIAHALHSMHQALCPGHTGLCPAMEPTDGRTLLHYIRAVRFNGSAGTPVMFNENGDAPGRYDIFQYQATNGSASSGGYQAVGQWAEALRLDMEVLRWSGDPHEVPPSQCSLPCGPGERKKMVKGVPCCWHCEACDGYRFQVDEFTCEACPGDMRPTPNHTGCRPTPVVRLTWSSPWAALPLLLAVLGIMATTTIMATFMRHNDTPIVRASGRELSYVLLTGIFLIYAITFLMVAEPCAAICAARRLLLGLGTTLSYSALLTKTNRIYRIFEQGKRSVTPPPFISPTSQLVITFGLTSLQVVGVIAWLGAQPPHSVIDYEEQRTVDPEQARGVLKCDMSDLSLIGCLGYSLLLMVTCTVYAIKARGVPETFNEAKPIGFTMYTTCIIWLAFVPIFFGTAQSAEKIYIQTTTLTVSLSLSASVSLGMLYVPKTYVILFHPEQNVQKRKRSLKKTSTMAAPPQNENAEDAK

Row | Structure (SMILES) | EC50 [1] [µM] | EC50 [6] [µM] | EC50 [2] [µM] | other results
1 | NC(CCP(=O)(O)O)C(=O)O (stereo not given) | 1 |  |  | 
2 | N[C@@]1(C(=O)O)CC[C@@H](C(=O)O)C1 | 60 |  | 15 | 

Now from value to compound, other results behind:

Row | EC50 [1] [µM] | EC50 [6] [µM] | Structure (SMILES) | EC50 [2] [µM] | other results
3 | 1000 |  | O=C(N[C@@]1(C(=O)O)CN[C@@H](C(=O)O)C1)c1ccccc1 |  | EC50 [3]: Not Active; EC50 [4]: Not Active; EC50 [5]: Not Active
4 | 110 | 100 | N[C@@]1(C(=O)O)CN[C@@H](C(=O)O)C1 | 200 | EC50 [7]: 0.3 µM
5 | 20 | > 1000 | N[C@]1(C(=O)O)C[C@H](C(=O)O)N(Cc2ccccc2)C1 |  | IC50 [2]: 600 µM; IC50 [7]: 200 µM
